Source: US9980976B2, “Use of REDD1 inhibitors to dissociate therapeutic and adverse atrophogenic effects of glucocorticoid receptor agonists” (Northwestern University, priority 2015, dated 2018)

Legend:
[1] = tested on: NF-kB dependent genes cyclins D1 and D2, MMP1 and CD74; test: Q-PCR analysis of NF-kB dependent genes in HaCaT and CEM cells; type: cell-based, human; conditions: single treatments, 1 uM
Protocol: FIG. 14. Rapamycin enhances GR transrepression. A, B. Q-PCR analysis of MMP13 and CD74 expression in HaCaT cells (A) and cyclin D1 (CCND1) and cyclin D2 (CCND2) expression in CEM cells (B). Cells were pretreated with solvent or Rapa (1 uM)×6 hrs and treated with solvent (Control) or FA (1 uM) for 24 h. A, B. Q-PCR results were normalized to the expression of the housekeeping Rp127 gene, and presented as fold of change compared to control cells. The means+/−SD calculated for three individual RNA samples/condition. a—Statistically significant difference (P<0.05) compared to control; b—Statistically significant differences (P<0.05) compared to FA treatment. C. […] The means+SD were calculated for three individual wells/group in one representative experiment (out of three experiments). a—Statistically significant differences (P<0.05) in comparison to vehicle treatment; b—Statistically significant differences (P<0.05) in comparison to FA treatment.
Total RNA from murine epidermis, whole human skin, and cell cultures was isolated with RiboPure kit (Ambion, Life Technologies, Grand Island, N.Y., USA). […] The gene expression was assessed using semi-quantitative two-step RT-PCR and quantitative Q-PCR. […] For semi-quantitative PCRs, Taq DNA polymerase (Promega) was used, and PCR products were separated on 1.5% agarose gel and visualized using automated imaging system (Bio-Rad, Hercules, Calif., USA). […]

[2] = tested on: croton oil-induced ear edema; test: Croton oil-induced ear edema test; type: in vivo, mouse
[3] = tested on: GR; test: GR nuclear translocation (immunofluorescence in HaCaT, Western blot of nuclear extracts in CEM); type: cell-based, human; conditions: HaCaT cells, 1 uM FA
Protocol: FIG. 15. Rapamycin inhibits GR nuclear translocation and phosphorylation. A. GR nuclear translocation in HaCaT cells was determined by immunofluorescence as described in Materials and Methods. Cells on coverslips were pretreated with solvent (Control) or Rapamycin (1 uM×6 h) and treated with 1 uM FA for indicated time. B. GR nuclear translocation in CEM cells was determined by Western blot analysis of nuclear protein extracts. Membranes were probed with anti-HDAC-1 antibodies to verify equal protein loading and transfer. C, D. GR phosphorylation in HaCaT (C) and CEM (D) cells was determined by Western blot analysis of whole cell lysates. Membranes were probed with anti-GAPDH antibodies to verify equal protein loading and transfer.
GR nuclear translocation was determined by immunofluorescence in HaCaT cells. Cells infected with pGIPZ and shREDD1 lentiviruses were selected with puromycin, seeded on coverslips. After the treatments, cells were fixed with 2% formaldehyde and permeabilized with acetone:methanol (1:1 v/v). After blocking, cells were incubated with primary rabbit anti-GR antibody (H-300, Santa Cruz Biotechnology, Santa Cruz, Calif., USA) followed by secondary anti-rabbit FITC-conjugated antibody (Jackson Immuno Research). Cell nuclei were counterstained with DAPI (Invitrogen, Life Technologies, Grand Island, N.Y., USA). […]

[4] = tested on: mTOR; test: mTOR activity in mouse skin (phosphorylation of 4E-BP1 and rpS6, phospho-mTOR Ser2448); type: in vivo; conditions: B6D2 mice, topical FA
Excerpt: Because REDD1 is a known inhibitor of mTOR signaling (Sofer et al, 2005; Wang et al, 2006; DeYoung et al, 2008; Shimizu et al, 2011), we tested whether FA inhibits mTOR activity in the skin. In previous studies, mTOR activity has been monitored by phosphorylation of its major substrates, 4E-BP1 (eukaryotic initiation factor 4E binding protein 1) and S6K1 (ribosomal p70/S6 kinase 1) as well as ribosomal protein S6 (rpS6), a substrate of S6K1 (Checkley et al, 2011). As basal level of S6K1 phosphorylation was low in skin of B6D2 mice, we used 4E-BP1 and rpS6 as preferred markers. […] Moreover, there was an inverse correlation between phosphorylation of mTOR targets and REDD1 expression in the epidermis. By the time when REDD1 expression reached its peak (8 h after 1st and 2nd FA applications), the repression of mTOR activity by FA was most pronounced (FIGS. 2A, B). We further confirmed this inverse correlation using immunostaining for REDD1 and active, phosphorylated at Ser2448 mTOR (FIG. 2A). […]

Structure (SMILES): CC1(C)O[C@@H]2C[C@H]3[C@@H]4C[C@H](F)C5=CC(=O)C=C[C@]5(C)[C@@]4(F)[C@@H](O)C[C@]3(C)[C@]2(C(=O)CO)O1 [FA, fluocinolone acetonide]
- basal expression of NF-kB dependent genes cyclins D1 and D2, MMP1 and CD74 [1]: inhibited
- ear edema / ear weight ([2]; croton oil 20 ul/ear, FA 1 ug/ear 1 h before CO, weighed 9 h after CO): reduced edema decreasing the ear weight to control level
- anti-inflammatory effect (ear morphology and ear punch weight) ([2]; wild-type and REDD1 KO mice, FA 2 μg 1 h before croton oil, 9 h after CO): relieved this inflammatory response with equal potency
- time GR remained in the nucleus [3]: 2 to 24 h
- time to GR nuclear import [3]: 10 min
- mTOR activity in the skin [4]: blocked mTOR activity
